US6518269B1, “Cancer treatment” (University of Arizona Foundation, priority 2000, dated 2003)
pIC50: −log10 of the molar value.

Assays:
HT29 Colon Cancer = test: MTT growth inhibition assay, HT29 Colon Cancer; assay type: cell-based; conditions: Homo sapiens, HT-29, HT29 Colon Cancer cells
Method: (§1) Each of the following compounds was tested for growth inhibition in a MTT assay against B16 Murine Melanoma and HT29 Colon Cancer, reported as IC50(μM).

B16 Murine Melanoma = test: MTT growth inhibition assay, B16 Murine Melanoma; assay type: cell-based; conditions: Mus musculus, B16 Murine Melanoma cells
Method: as §1

SMILES	pIC50 (HT29 Colon Cancer)	pIC50 (B16 Murine Melanoma)
Cc1nnc(N/N=C/c2ccccc2O)[nH]c1=O [Compound II, benzaldehyde, 2-hydroxy-, (4-hydro-5-oxo-6-methyl-1,2,4-triazin-3-yl)hydrazide]	7.72	5.96
O=c1cnnc(N/N=C/c2ccccc2O)[nH]1 [Compound I, benzaldehyde, 2-hydroxy-, (4-hydro-5-oxo-1,2,4-triazin-3-yl)hydrazide]	8.15	6.58
